Experimental findings from patent US20150297482A1, “MALODOR COUNTERACTING COMPOSITIONS AND METHOD FOR THEIR USE TO COUNTERACT SWEAT MALODOR” (FIRMENICH SA, priority 2009, published 2015) are described below.

Where two headings read alike, the source gives them in different places.

The subject of this assay is Staphylococcus haemolyticus CNCM I-4170. The experiment in a line: Protocol A: in-vitro malodor inhibition (free thiol groups from Cys-Gly precursor, DTNB absorbance at 412 nm). The format is cell-based. The text has this:
Further details of such a screening and % inhibition measurement and definition are described further on in this application. The precursor used, which may also be in the form of a human sweat sample, typically generates malodorant sulfur compounds when acted upon by the Staphylococcus haemolyticus cells, or by a β-lyase present in such cells. The malodor inhibition coefficient, as defined herein, reflects the % of reduction in free SH groups generated in the above-mentioned medium by the enzymatic activity of the bacterial cells when in presence of the MOC ingredient or MOC composition in question, as compared to the same measurement in their absence. […] Alternatively, the bacterial cells can be replaced by a β-lyase present in said cells. […] Detection of enzymatic activity inhibition is measured via the sulfur groups, namely thiol groups, freed from the precursor bacterial transformation, by comparison with the reference experiment in the absence of the respective MOC ingredient, said sulfur groups being detected by interaction with DTNB, a known chemical detector system for thiols. The reaction can be monitored by absorbance reading at 412 nm. The procedure can be performed indifferently with either a purified or semi-purified enzyme or intact bacterial cells, as in the case described here. Malodor inhibition coefficient is measured as a function of the percentage of free thiol groups in the medium, over time, by an absorbance method, and reflects the reduction in malodor obtained in the presence of the MOC ingredients and compositions. […] At the end of the growth phase, the bacterial cells were harvested by centrifugation at 5000 rpm for 15 min. The cell pellet was then washed with 0.1 volumes of sterile potassium phosphate buffer 0.1 M, pH 7.5. […] The precursor was used at 0.17 mM final concentration. • Detection reagent DTNB • DTNB (5,5′-Dithio-bis-(2-nitrobenzoic acid; […]

The mark [1] stands for this setting: Staphylococcus haemolyticus, CNCMI4170, 0.0012 w/v % in medium, read-out: Ingredient Malodor Inhibition Value (%).
The mark [2] stands for this setting: Staphylococcus haemolyticus, CNCMI4170, 0.0025 w/v % in medium, read-out: Ingredient Malodor Inhibition Value (%).
Setting [3] is: Staphylococcus haemolyticus, CNCMI4170, 0.006 w/v % in medium, read-out: Ingredient Malodor Inhibition Value (%).
Where [4] appears, read: Staphylococcus haemolyticus, CNCMI4170, 0.0125 w/v % in medium, read-out: Ingredient Malodor Inhibition Value (%).
[5] abbreviates: Staphylococcus haemolyticus, CNCMI4170, 0.025 w/v % in medium, read-out: Ingredient Malodor Inhibition Value (%).
The mark [6] stands for this setting: Staphylococcus haemolyticus, CNCMI4170, 0.05 w/v % in medium, read-out: Ingredient Malodor Inhibition Value (%).
Setting [7] is: Staphylococcus haemolyticus, CNCMI4170, 0.1 w/v % in medium, read-out: Ingredient Malodor Inhibition Value (%).

The term inhibition denotes the change of the read-out against control, counted positive when it falls. Turning to `CC1C(C)(C)C2=C(C(=O)CCC2)C1(C)C` (stereo not shown) [Cashmeran, 1,2,3,5,6,7-hexahydro-1,1,2,3,3-pentamethyl-4-indenone], the inhibition at 0.0012 % under setting [1] came to 0%. Also, the inhibition at 0.0025 % under setting [2] is 0%. Also, under setting [3], the inhibition at 0.006 % was found to be 19.2%. Moreover, the inhibition at 0.0125 % under setting [4] amounted to 54%. The inhibition at 0.025 % under setting [5] stood at 71.5%. Besides, the inhibition at 0.05 % under setting [6] stood at 70.1%. In addition, the inhibition at 0.1 % under setting [7] was 73.2%.

Consider `CC(C)(O)CCC1CCCCC1` [Coranol ®, 4-cyclohexyl-2-methyl-2-butanol], for which the inhibition at 0.0012 % under setting [1] amounted to 0%. Besides, under setting [2], the inhibition at 0.0025 % is 0%. Also, the inhibition at 0.006 % under setting [3] was 10.8%. In addition, the inhibition at 0.0125 % under setting [4] was found to be 49.8%. For the same compound, the inhibition at 0.025 % under setting [5] came out at 77.7%. Further, the inhibition at 0.1 % under setting [7] was found to be 77.8%.

Turning to `CC(C=O)Cc1ccc(C(C)(C)C)cc1` (stereo not shown) [Lilial ®, 3-(4-tert-butylphenyl)-2-methylpropanal], the inhibition at 0.0012 % under setting [1] stood at 0.9%. Also, the inhibition at 0.0025 % under setting [2] came to 9.47%. Besides, the inhibition at 0.006 % under setting [3] came out at 37.5%. The inhibition at 0.0125 % under setting [4] was 81%. The inhibition at 0.025 % under setting [5] was found to be 90%.

In the case of `C=CC(C)(O)CCC=C(C)CCC=C(C)C` (stereo not shown) [Nerolidol], the inhibition at 0.0012 % under setting [1] stood at 0%. Moreover, under setting [2], the inhibition at 0.0025 % was 6.52%. Also, under setting [3], the inhibition at 0.006 % came out at 53.5%. For the same compound, under setting [4], the inhibition at 0.0125 % was found to be 56.9%. Also, the inhibition at 0.025 % under setting [5] worked out at 68.5%. Moreover, the inhibition at 0.05 % under setting [6] stood at 66.8%.

Regarding `CCCCCCCCC=O` [Nonanal], the inhibition at 0.0012 % (Staphylococcus haemolyticus, CNCMI4170, Table 2, 0.0012 w/v % in medium, read-out: Ingredient Malodor Inhibition Value (%)) is 5.26%. In addition, the inhibition at 0.0025 % (Staphylococcus haemolyticus, CNCMI4170, Table 2, 0.0025 w/v % in medium, read-out: Ingredient Malodor Inhibition Value (%)) amounted to 5.08%. Moreover, for the setting “Staphylococcus haemolyticus, CNCMI4170, Table 2, 0.005 w/v % in medium, read-out: Ingredient Malodor Inhibition Value (%)”, the inhibition at 0.005 % worked out at 40.2%. The inhibition at 0.0125 % (Staphylococcus haemolyticus, CNCMI4170, Table 2, 0.0125 w/v % in medium, read-out: Ingredient Malodor Inhibition Value (%)) worked out at 80.4%. Also, the inhibition at 0.025 % (Staphylococcus haemolyticus, CNCMI4170, Table 2, 0.025 w/v % in medium, read-out: Ingredient Malodor Inhibition Value (%)) is 94.8%. For the same compound, the inhibition at 0.05 % (Staphylococcus haemolyticus, CNCMI4170, Table 2, 0.05 w/v % in medium, read-out: Ingredient Malodor Inhibition Value (%)) was 97.8%.

In the case of `CCC(C)CCCC(C)(C)O` (stereo not shown) [Tetrahydromyrcenol], the “Ingredient Malodor Inhibition Value (%)” value is, setting by setting: (0.0012 w/v % in medium) 0.00%; (0.0025 w/v % in medium) 0.00%; (0.006 w/v % in medium) 0.00%; (0.0125 w/v % in medium) 0.00%; (0.025 w/v % in medium) 41.38%; (0.05 w/v % in medium) 72.56%. The “Ingredient Malodor Inhibition Value (%)” value (0.1 w/v % in medium) came out at 66.63%.

Consider Terpenyl acetate, for which the “Ingredient Malodor Inhibition Value (%)” value runs as follows: (0.0012 w/v % in medium) 0.00%; (0.0025 w/v % in medium) 0.00%; (0.006 w/v % in medium) 0.00%; (0.0125 w/v % in medium) 0.00%; (0.025 w/v % in medium) 0.00%; (0.05 w/v % in medium) 6.81%. In addition, the “Ingredient Malodor Inhibition Value (%)” value (0.1 w/v % in medium) was 00.00%.

Regarding Vetyverone, the “Ingredient Malodor Inhibition Value (%)” value came out at 10.9% (Table 2, 0.0012 w/v % in medium); 10.40% (Table 2, 0.0025 w/v % in medium); 44.6% (Table 2, 0.005 w/v % in medium); 47.1% (Table 2, 0.025 w/v % in medium); 54.2% (Table 2, 0.05 w/v % in medium).
